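96-well plates; 48 h exposure; 5 concentrations. Endpoints by linear interpolation between flanking doses. Not reached: highest tested concentration assigned. TGI: total growth inhibition.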
Tests used:
Assay in all cases: NCI tumour cell line growth inhibition, 48 h
[1] = test system: 786-0 renal
[2] = test system: A498 renal
[3] = test system: A549 NSCLC
[4] = test system: ACHN renal
[5] = test system: BT-549 breast
[6] = test system: CAKI-1 renal
[7] = test system: CCRF-CEM leukemia
[8] = test system: COLO 205 colon
[9] = test system: DU-145 prostate
[10] = test system: EKVX NSCLC
[11] = test system: HCC-2998 colon
[12] = test system: HCT-116 colon
[13] = test system: HCT-15 colon
[14] = test system: HL-60(TB) leukemia
[15] = test system: HOP-62 NSCLC
[16] = test system: HOP-92 NSCLC
[17] = test system: HS 578T breast
[18] = test system: HT29 colon
[19] = test system: IGROV1 ovarian
[20] = test system: K-562 leukemia
[21] = test system: KM12 colon
[22] = test system: LOX IMVI melanoma
[23] = test system: M14 melanoma
[24] = test system: MALME-3M melanoma
[25] = test system: MCF7 breast
[26] = test system: MDA-MB-231 breast
[27] = test system: MDA-MB-435
[28] = test system: MDA-N
[29] = test system: MOLT-4 leukemia
[30] = test system: NCI-H226 lung
[31] = test system: NCI-H23 lung
[32] = test system: NCI-H460 lung
[33] = test system: NCI-H522 lung
[34] = test system: NCI/ADR-RES ovarian
[35] = test system: OVCAR-3 ovarian
[36] = test system: OVCAR-4 ovarian
[37] = test system: OVCAR-5 ovarian
[38] = test system: OVCAR-8 ovarian
[39] = test system: PC-3 prostate
[40] = test system: RXF 393 renal
[41] = test system: SF-268 CNS
[42] = test system: SF-295 CNS
[43] = test system: SF-539 CNS
[44] = test system: SK-MEL-28 melanoma
[45] = test system: SK-MEL-5 melanoma
[46] = test system: SK-OV-3 ovarian
[47] = test system: SN12C renal
[48] = test system: SNB-19 CNS
[49] = test system: SR leukemia
[50] = test system: SW-620 colon
[51] = test system: T-47D breast
[52] = test system: TK-10 renal
[53] = test system: U251 CNS
[54] = test system: UACC-257 melanoma
[55] = test system: UACC-62 melanoma
[56] = test system: UO-31 renal
[57] = test system: SK-MEL-2 melanoma
[58] = test system: SNB-75 CNS
[59] = test system: RPMI-8226 leukemia

Measured: TGI

CNC(=O)OCCN1c2ccccc2Sc2ccccc21
89.2 µM: [15]
89.5 µM: [26]
99.2 µM: [40]
not listed: [57] | [58] | [59]
> 100 µM: all other assays above

COc1ccc(Nc2nc3ccccc3nc2C(=O)O)cc1
23.1 µM: [11]
85.9 µM: [17]
not listed: [30] | [59]
> 100 µM: all other assays above

CCOC(=O)CCc1c(C)[nH]c2c(C)c3c([nH]c4ccc(Cl)cc43)c(C)c2c1=O
22.3 µM: [14]
37.2 µM: [52]
87 µM: [21]
37.1 µM: [24]
24.1 µM: [33]
61.7 µM: [31]
83.8 µM: [38]
30.5 µM: [11] | [54]
54.3 µM: [51]
23.5 µM: [3]
20.5 µM: [1]
41.4 µM: [36]
33 µM: [2]
67.1 µM: [16]
38.7 µM: [12]
76.7 µM: [41]
43.4 µM: [53]
54.5 µM: [13]
40.3 µM: [5]
77.5 µM: [17]
37.7 µM: [25]
89 µM: [8]
22.1 µM: [42]
37.6 µM: [10]
46.1 µM: [44]
28.7 µM: [43]
40.6 µM: [56]
49.5 µM: [6]
18.6 µM: [18]
48.4 µM: [15]
34.2 µM: [26]
23.3 µM: [22]
6.76 µM: [40]
18.5 µM: [23]
26.2 µM: [19]
46.5 µM: [30]
30.9 µM: [58]
14.4 µM: [57]
28.9 µM: [4]
19.1 µM: [37]
54 µM: [34]
6.11 µM: [32]
not listed: [20] | [35] | [46] | [47] | [55] | [59]
> 100 µM: all other assays above

COc1ccccc1OC(=O)/C=C/c1ccccc1
not listed: [7] | [20]
> 100 µM: all other assays above
